The values that follow are results of earlier work, collected in US20250222021A1, “METHOD OF TREATING ACID-BASE DISORDERS” (Renosis, Inc., priority 2017, published 2025).

For this series, the system named is adult patients with CKD and serum bicarbonate 16 to 20 mmol/L. As to conditions: 2 years.

Turning to `O=C([O-])O.[Na+]` [sodium bicarbonate], the “Patients who developed ESRD” value is listed as 6.5%, the “Patients with rapid progression (rapid decline of CrCl >3 ml/min per 1.73 m^2/yr)” value is recorded as 9%, the “Relative risk of ESRD versus control” value is 0.13 and the “Relative risk of rapid progression versus control” value is reported as 0.15. In addition, where the note is “average 1.82 g/day bicarbonate”, the “Decrease in creatinine clearance (CrCl)” value is on record as 1.88 ml/min per 1.73 m^2.
